From US12509444B2, “Compounds and methods for CD73 modulation and indications therefor” (Plexxikon Inc., priority 2019, dated 2025)

How the values were obtained:
[1] = target: T1, Human CD73 (amino acid residues 27-549) (Homo sapiens, UniProt P21589); test: CD73 enzymatic assay (luciferase-based indirect assay, CellTiter-Glo); format: biochemical; settings: 0.4 nM CD73, 150 μM AMP, 1 hour at room temperature
T1 construct: Human CD73 (amino acid residues 27-549); His tag (N); made in house; host or cells: E. coli
T1 sequence (P21589 27-549): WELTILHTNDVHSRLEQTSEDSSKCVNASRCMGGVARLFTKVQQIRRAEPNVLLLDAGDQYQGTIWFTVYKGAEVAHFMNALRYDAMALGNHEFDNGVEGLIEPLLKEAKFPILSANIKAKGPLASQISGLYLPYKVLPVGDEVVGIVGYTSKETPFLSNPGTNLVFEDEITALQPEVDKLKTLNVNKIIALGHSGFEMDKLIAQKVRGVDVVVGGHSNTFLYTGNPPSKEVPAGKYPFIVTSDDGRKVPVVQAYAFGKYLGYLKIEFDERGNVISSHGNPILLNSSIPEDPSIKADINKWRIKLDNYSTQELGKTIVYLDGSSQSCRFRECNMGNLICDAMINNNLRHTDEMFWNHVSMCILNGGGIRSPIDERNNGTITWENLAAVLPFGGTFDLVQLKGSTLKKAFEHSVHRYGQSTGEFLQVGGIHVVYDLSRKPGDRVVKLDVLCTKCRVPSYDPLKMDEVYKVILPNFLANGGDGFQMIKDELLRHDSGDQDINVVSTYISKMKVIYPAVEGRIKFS
How it was run: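 Residual AMP inhibits luciferase, so luminescence reports CD73 turnover; read with CellTiter-Glo 2.0 plus 1 μM final ATP, 30 min. Reaction used 0.4 nM N-His CD73 (27-549, E. coli), 150 μM AMP, HEPES pH 7.4 with Tween 20, 1 h at room temperature. IC50 fitted by nonlinear regression.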

[2] = target: T2, human CD73 (Homo sapiens, UniProt P21589); test: Inhibitor activity against CD73 in cell based assay (CD73 expressing CHO-K1 cells); settings: CHO-K1 cells expressing human CD73, 150 μM AMP, 4 hours of incubation; read-out: CHO-K1 CELL VARIANT: CD73 IC50
T2 construct: expressed in transfected cells
T2 sequence (P21589 27-549): T1 sequence (P21589 27-549)
How it was run: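 Residual supernatant AMP was quantified via CellTiter-Glo luminescence (1 μM ATP added, 30 min, room temperature) after a 4 h exposure of human CD73-expressing CHO-K1 cells to 150 μM AMP plus compound, top final 10 μM, 8 points. IC50 came from nonlinear regression of percent inhibition.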

Compound | IC50 [1] [µM] | IC50 [2] [µM]
CC(C)NC(=O)N[C@H]1CC[C@H](NC(=O)O[C@@H]2CCN(c3cn[nH]c(=O)c3Cl)C2)CC1 [P-0320, (R)-1-(5-chloro-6-oxo-1,6-dihydropyridazin-4-yl)pyrrolidin-3-yl ((1r,4R)-4-(3-isopropylureido)cyclohexyl) carbamate] | 0.001 to 10 | 0.001 to 10
Cc1ccc(NC(=O)N[C@H]2CC[C@H](NC(=O)O[C@@H]3CCN(c4cn[nH]c(=O)c4Cl)C3)CC2)cc1 [P-0321, (R)-1-(5-chloro-6-oxo-1,6-dihydropyridazin-4-yl)pyrrolidin-3-yl ((1r,4R)-4-(3-(p-tolyl)ureido)cyclohexyl) carbamate] | 0.001 to 10 | 0.001 to 10
N#Cc1ccc(NC(=O)N[C@H]2CC[C@H](NC(=O)O[C@@H]3CCN(c4cn[nH]c(=O)c4Cl)C3)CC2)cc1 [P-0322, (R)-1-(5-chloro-6-oxo-1,6-dihydropyridazin-4-yl)pyrrolidin-3-yl ((1r,4R)-4-(3-(4-cyanophenyl)ureido)cyclohexyl)carbamate] | 0.001 to 10 | 0.001 to 10
O=C(Nc1ccc(F)cc1F)N[C@H]1CC[C@H](NC(=O)O[C@@H]2CCN(c3cn[nH]c(=O)c3Cl)C2)CC1 [P-0323, (R)-1-(5-chloro-6-oxo-1,6-dihydropyridazin-4-yl)pyrrolidin-3-yl ((1r,4R)-4-(3-(2,4-difluorophenyl)ureido)cyclohexyl)carbamate] | 0.001 to 10 | 0.001 to 10
O=C(NCC(F)(F)F)N[C@H]1CC[C@H](NC(=O)O[C@@H]2CCN(c3cn[nH]c(=O)c3Cl)C2)CC1 [P-0324, (R)-1-(5-chloro-6-oxo-1,6-dihydropyridazin-4-yl)pyrrolidin-3-yl ((1r,4R)-4-(3-(2,2,2-trifluoroethyl)ureido)cyclohexyl)carbamate] | 0.001 to 10 | 0.001 to 10
COC(=O)N[C@H]1CC[C@H](NC(=O)O[C@@H]2CCN(c3cn[nH]c(=O)c3Cl)C2)CC1 [P-0325, (R)-1-(5-chloro-6-oxo-1,6-dihydropyridazin-4-yl)pyrrolidin-3-yl methyl ((1R,4r)-cyclohexane-1,4-diyl)dicarbamate] | 0.001 to 10 | 0.001 to 10
O=C(NC1CC1)N[C@H]1CC[C@@H](NC(=O)O[C@@H]2CCN(c3cn[nH]c(=O)c3Cl)C2)CC1 [P-0326, (R)-1-(5-chloro-6-oxo-1,6-dihydropyridazin-4-yl)pyrrolidin-3-yl ((1s,4S)-4-(3-cyclopropylureido)cyclohexyl) carbamate] | 0.001 to 10 | 0.001 to 10
CC(C)(C)C(=O)N[C@H]1CC[C@@H](NC(=O)O[C@@H]2CCN(c3cn[nH]c(=O)c3Cl)C2)CC1 [P-0327, (R)-1-(5-chloro-6-oxo-1,6-dihydropyridazin-4-yl)pyrrolidin-3-yl ((1s,4S)-4-pivalamidocyclohexyl) carbamate] | 0.001 to 10 | 0.001 to 10
O=C(NC1CCC2(CC1)CS(=O)(=O)C2)O[C@@H]1CCN(c2cn[nH]c(=O)c2Cl)C1 [P-0328, (R)-1-(5-chloro-6-oxo-1,6-dihydropyridazin-4-yl)pyrrolidin-3-yl (2,2-dioxido-2-thiaspiro[3.5]nonan-7-yl)carbamate] | 0.001 to 10 | 0.001 to 10
O=C(N[C@H]1CC[C@@H](NC2CCCCC2)CC1)O[C@@H]1CCN(c2cn[nH]c(=O)c2Cl)C1 [P-0329, (R)-1-(5-chloro-6-oxo-1,6-dihydropyridazin-4-yl)pyrrolidin-3-yl ((1s,4S)-4-(cyclohexylamino)cyclohexyl) carbamate] | 0.001 to 10 | 0.001 to 10
O=C(N[C@H]1CC[C@@H](Nc2cc(F)ccn2)CC1)O[C@@H]1CCN(c2cn[nH]c(=O)c2Cl)C1 [P-0330, (R)-1-(5-chloro-6-oxo-1,6-dihydropyridazin-4-yl)pyrrolidin-3-yl ((1s,4S)-4-((4-fluoropyridin-2-yl)amino)cyclohexyl)carbamate] | 0.001 to 10 | 0.001 to 10
CC(C)(O)Cn1ncc(N2CC[C@@H](OC(=O)NC3CCC(F)(F)CC3)C2)c(Cl)c1=O [P-0331, (R)-1-(5-chloro-1-(2-hydroxy-2-methylpropyl)-6-oxo-1,6-dihydropyridazin-4-yl)pyrrolidin-3-yl (4,4-difluorocyclohexyl)carbamate] | 0.001 to 10 | 10 to 100
O=C(NC1CCC(F)(F)CC1)O[C@@H]1CCN(c2cnn(CCCO)c(=O)c2Cl)C1 [P-0332, (R)-1-(5-chloro-1-(3-hydroxypropyl)-6-oxo-1,6-dihydropyridazin-4-yl)pyrrolidin-3-yl (4,4-difluorocyclohexyl)carbamate] | 0.001 to 10 | 0.001 to 10
O=C(NC1CCN(C(=O)CO)CC1(F)F)O[C@@H]1CCN(c2cn[nH]c(=O)c2Cl)C1 (stereo partly drawn) [P-0333, (R)-1-(5-chloro-6-oxo-1,6-dihydropyridazin-4-yl)pyrrolidin-3-yl (3,3-difluoro-1-(2-hydroxyacetyl)piperidin-4-yl)carbamate] | 0.001 to 10 | 0.001 to 10

The remaining lines, values ahead:

IC50 [1] [µM] | IC50 [2] [µM] | Compound
0.001 to 10 | 0.001 to 10 | CC1(S(=O)(=O)N[C@H]2CC[C@H](NC(=O)O[C@@H]3CCN(c4cn[nH]c(=O)c4Cl)C3)CC2)CC1 [P-0313, (R)-1-(5-chloro-6-oxo-1,6-dihydropyridazin-4-yl)pyrrolidin-3-yl ((1r,4R)-4-((1-methylcyclopropane)-1-sulfonamido)cyclohexyl) carbamate]
0.001 to 10 | 0.001 to 10 | O=C(N[C@H]1CC[C@H](NC(=O)c2ccccc2F)CC1)O[C@@H]1CCN(c2cn[nH]c(=O)c2Cl)C1 [P-0314, (R)-1-(5-chloro-6-oxo-1,6-dihydropyridazin-4-yl)pyrrolidin-3-yl ((1r,4R)-4-(2-fluorobenzamido)cyclohexyl) carbamate]
0.001 to 10 | 0.001 to 10 | O=C(N[C@H]1CC[C@H](NC(=O)c2cccc(F)c2)CC1)O[C@@H]1CCN(c2cn[nH]c(=O)c2Cl)C1 [P-0315, (R)-1-(5-chloro-6-oxo-1,6-dihydropyridazin-4-yl)pyrrolidin-3-yl ((1r,4R)-4-(3-fluorobenzamido)cyclohexyl) carbamate]
0.001 to 10 | 0.001 to 10 | Cc1ccccc1C(=O)N[C@H]1CC[C@H](NC(=O)O[C@@H]2CCN(c3cn[nH]c(=O)c3Cl)C2)CC1 [P-0316, (R)-1-(5-chloro-6-oxo-1,6-dihydropyridazin-4-yl)pyrrolidin-3-yl ((1r,4R)-4-(2-methylbenzamido)cyclohexyl) carbamate]
0.001 to 10 | 0.001 to 10 | Cc1cccc(C(=O)N[C@H]2CC[C@H](NC(=O)O[C@@H]3CCN(c4cn[nH]c(=O)c4Cl)C3)CC2)c1 [P-0317, (R)-1-(5-chloro-6-oxo-1,6-dihydropyridazin-4-yl)pyrrolidin-3-yl ((1r,4R)-4-(3-methylbenzamido)cyclohexyl) carbamate]
0.001 to 10 | 0.001 to 10 | O=C(N[C@H]1CC[C@H](NC(=O)c2ccc(C(F)(F)F)nc2)CC1)O[C@@H]1CCN(c2cn[nH]c(=O)c2Cl)C1 [P-0318, (R)-1-(5-chloro-6-oxo-1,6-dihydropyridazin-4-yl)pyrrolidin-3-yl ((1r,4R)-4-(6-(trifluoromethyl)nicotinamido)cyclohexyl)carbamate]
0.001 to 10 | 0.001 to 10 | CNC(=O)N[C@H]1CC[C@H](NC(=O)O[C@@H]2CCN(c3cn[nH]c(=O)c3Cl)C2)CC1 [P-0319, (R)-1-(5-chloro-6-oxo-1,6-dihydropyridazin-4-yl)pyrrolidin-3-yl ((1r,4R)-4-(3-methylureido)cyclohexyl) carbamate]
